Measured values taken from the NIST ThermoML archive (doi:10.1016/j.tca.2006.08.007).
± gives the expanded uncertainty stated by the source.

Key:
[1] = refractive index (Na D-line) (dimensionless); settings: 293.15 K; 101.33 kPa; Liquid; refractometer
[2] = 293.15 K; 101.33 kPa; Liquid; Vibrating tube method

refractive index [1] | mass density [2] | SMILES
1.418 ± 0.0002 | 818.7 ± 0.3 kg/m3 | CCCCCCO [hexan-1-ol]
1.3442 ± 0.0001 | 782.5 ± 0.2 kg/m3 | CC#N [acetonitrile]
1.4098 ± 0.0003 | 815.1 ± 0.5 kg/m3 | CCCCCO [pentan-1-ol]
